Values after ≈ are worked out from the molar mass of the structure shown.
System: M. tuberculosis
Experiment: microbe, parasite or virus in culture
Format: cell-based
Settings: Mycobacterium tuberculosis, 120 h; read-out: QUM (MIC80)

## CCc1nc2ccc(C)cn2c1C(=O)NCc1ccc(N2CCN(c3ccc(Cl)cc3)CC2)cc1 [Compound 66]
  MIC80: < 1 µM

## CCc1nc2ccc(C(F)(F)F)cn2c1C(=O)NCc1ccc(N2CCN(c3ccc(C(F)(F)F)cc3)CC2)cc1 [Compound 130]
  MIC80: < 1 µM

## CCc1nc2cc(C(F)(F)F)ccn2c1C(=O)NCc1ccc(N2CCN(c3ccc(OC(F)(F)F)cc3)CC2)cc1 [Compound 203]
  MIC80: < 1 µM

## CCc1nc2cc(Cl)ccn2c1C(=O)NCc1ccc(N2CCN(c3ccc(C)cc3)CC2)cc1 [Compound 35]
  MIC80: < 1 µM

## CCc1nc2c(Br)cccn2c1C(=O)NCc1ccc(N2CCC(c3ccc(C)cc3)CC2)cc1 [Compound 34]
  MIC80: 1 to 20 µM (≈ 0.531 to 10.6 µg/mL)

## CCc1nc2cc(Br)ccn2c1C(=O)NCc1ccc(N2CCC(c3ccc(Cl)cc3)CC2)cc1 [Compound 134]
  MIC80: < 1 µM

## CCc1nc2c(C(F)(F)F)cccn2c1C(=O)NCc1ccc(N2CCN(c3ccc(F)cc3)CC2)cc1 [Compound 198]
  MIC80: 1 to 20 µM (≈ 0.526 to 10.5 µg/mL)

## CCc1nc2ccc(Cl)cn2c1C(=O)NCc1ccc(N2CCC(NC(=O)c3ccc(F)cc3)CC2)cc1 [Compound 234]
  MIC80: > 20 µM

## CCc1nc2cc(Cl)ccn2c1C(=O)NCc1ccc2c(c1)ncn2C [Compound 272]
  MIC80: 1 to 20 µM (≈ 0.368 to 7.36 µg/mL)

## CCc1nc2c(C)cccn2c1C(=O)NCc1ccc(N2CCC(c3ccc(Cl)cc3)CC2)cc1 [Compound 173]
  MIC80: < 1 µM

## CCc1nc2ccc(Cl)cn2c1C(=O)NCc1ccc2cc[nH]c2c1 [Compound 273]
  MIC80: < 1 µM

## CCc1nc2cc(C(F)(F)F)ccn2c1C(=O)NCc1ccc(N2CCN(c3ccccc3)CC2)cc1 [Compound 81]
  MIC80: < 1 µM

## CCc1nc2ccc(C)cn2c1C(=O)NCc1ccc(N2CCC(c3ccccc3)CC2)cc1 [Compound 216]
  MIC80: < 1 µM

## CCc1nc2cc(OC)ccn2c1C(=O)NCc1ccc(N2CCC(c3ccc(F)cc3)CC2)cc1 [Compound 20]
  MIC80: < 1 µM

## CCc1nc2c(OC)cccn2c1C(=O)NCc1ccc(N2CCC(c3ccc(OC)cc3)CC2)cc1 [Compound 152]
  MIC80: 1 to 20 µM (≈ 0.499 to 9.97 µg/mL)

## CCc1nc2cc(OC)ccn2c1C(=O)NCc1ccc(N2CCN(c3ccc(OC(F)(F)F)cc3)CC2)cc1 [Compound 10]
  MIC80: < 1 µM

## CCc1nc2c(C(F)(F)F)cccn2c1C(=O)NCc1ccc(N2CCC(c3ccc(OC)cc3)CC2)cc1 [Compound 27]
  MIC80: 1 to 20 µM (≈ 0.537 to 10.7 µg/mL)

## CCc1nc2ccc(Cl)cn2c1C(=O)NCc1ccc(NC(=O)NC(C)(C)C)cc1 [Compound 278]
  MIC80: 1 to 20 µM (≈ 0.428 to 8.56 µg/mL)

## CCc1nc2cc(C)ccn2c1C(=O)NCc1ccc(N2CCN(c3ccc(C)cc3)CC2)cc1 [Compound 141]
  MIC80: < 1 µM

## CCc1nc2c(F)cccn2c1C(=O)NCc1ccc(N2CCC(c3ccc(C)cc3)CC2)cc1 [Compound 6]
  MIC80: < 1 µM

## CCc1nc2cc(F)ccn2c1C(=O)NCc1ccc(N2CCN(c3ccc(C)cc3)CC2)cc1 [Compound 93]
  MIC80: < 1 µM

## CCc1nc2cc(F)ccn2c1C(=O)NCc1ccc(N2CCN(c3ccc(C(F)(F)F)cc3)CC2)cc1 [Compound 229]
  MIC80: < 1 µM

## CCc1nc2cc(OC)ccn2c1C(=O)NCc1ccc(N2CCN(c3ccc(OC)cc3)CC2)cc1 [Compound 110]
  MIC80: < 1 µM

## CCc1nc2cc(Cl)ccn2c1C(=O)NCc1ccc(N2CCN(c3ccc(OC)cc3)CC2)cc1 [Compound 46]
  MIC80: < 1 µM

## CCc1nc2c(C)cccn2c1C(=O)NCc1ccc(N2CCN(c3ccc(OC(F)(F)F)cc3)CC2)cc1 [Compound 44]
  MIC80: < 1 µM

## Cc1nc2cc(F)ccn2c1C(=O)NCc1ccc(N2CCC(c3ccc(OC(F)(F)F)cc3)CC2)cc1 [Compound 350]
  MIC80: < 1 µM

## CCc1nc2ccc(Cl)cn2c1C(=O)NCc1ccc(N2CCC(C(=O)c3ccc(OC(F)(F)F)cc3)CC2)cc1 [Compound 241]
  MIC80: < 1 µM

## CCc1nc2ccc(C)cn2c1C(=O)NCc1ccc(N2CCN(c3ccc(C)cc3)CC2)cc1 [Compound 65]
  MIC80: < 1 µM

## CCc1nc2ccc(Cl)cn2c1C(=O)NCc1ccc(N2CCN(c3ccc(OC)cc3)CC2)cc1 [Compound 33]
  MIC80: < 1 µM

## CCc1nc2ccc(Br)cn2c1C(=O)NCc1ccc(N2CCC(c3ccc(C)cc3)CC2)cc1 [Compound 79]
  MIC80: < 1 µM

## CCc1nc2c(F)cccn2c1C(=O)NCc1cccc(N2CCOCC2)c1 [Compound 281]
  MIC80: 1 to 20 µM (≈ 0.382 to 7.65 µg/mL)

## CCc1nc2cc(Cl)ccn2c1C(=O)NCc1ccc(N2CCN(c3ccc(Cl)cc3)CC2)cc1 [Compound 194]
  MIC80: < 1 µM

## CCc1nc2cc(F)ccn2c1C(=O)NCc1ccc(N2CCN(c3ccc(F)cc3)CC2)cc1 [Compound 82]
  MIC80: < 1 µM

## CCc1nc2ccc(Br)cn2c1C(=O)NCc1ccc(N2CCC(c3ccc(OC(F)(F)F)cc3)CC2)cc1 [Compound 187]
  MIC80: < 1 µM

## CCc1nc2ccccn2c1C(=O)NCc1ccc(N2CCC(c3ccc(C)cc3)CC2)cc1 [Compound 157]
  MIC80: < 1 µM

## CCc1nc2ccc(C)cn2c1C(=O)NCc1ccc(N2CCC(c3ccc(F)cc3)CC2)cc1 [Compound 19]
  MIC80: < 1 µM

## CCc1nc2c(OC)cccn2c1C(=O)NCc1ccc(N2CCN(c3ccc(OC)cc3)CC2)cc1 [Compound 58]
  MIC80: 1 to 20 µM (≈ 0.5 to 9.99 µg/mL)

## CCc1nc2cc(C(F)(F)F)ccn2c1C(=O)NCc1ccc(N2CCC(c3ccc(C(F)(F)F)cc3)CC2)cc1 [Compound 26]
  MIC80: < 1 µM

## CCc1nc2ccc(Cl)cn2c1C(=O)NCc1ccc2ncn(Cc3ccc(OC(F)(F)F)cc3)c2c1 [Compound 274]
  MIC80: 1 to 20 µM (≈ 0.528 to 10.6 µg/mL)

## CCc1nc2ccc(Cl)cn2c1C(=O)NCc1ccc(N2CCC(c3ccc(C=O)cc3)CC2)cc1 [Compound 346]
  MIC80: < 1 µM

## CCc1nc2c(OC)cccn2c1C(=O)NCc1ccc(N2CCC(c3ccc(F)cc3)CC2)cc1 [Compound 151]
  MIC80: 1 to 20 µM (≈ 0.487 to 9.73 µg/mL)

## CCc1nc2cc(Cl)ccn2c1C(=O)NCc1ccc(N2CCC(c3ccc(C(F)(F)F)cc3)CC2)cc1 [Compound 13]
  MIC80: < 1 µM

## CCc1nc2cc(C(F)(F)F)ccn2c1C(=O)NCc1ccc(N2CCN(c3ccc(F)cc3)CC2)cc1 [Compound 86]
  MIC80: < 1 µM

## CCc1nc2c(C)cccn2c1C(=O)NCc1ccc(N2CCC(c3ccc(F)cc3)CC2)cc1 [Compound 225]
  MIC80: < 1 µM

## Cc1nc2ccc(F)cn2c1C(=O)NCc1ccc(N2CCC(c3ccc(F)cc3)CC2)cc1 [Compound 313]
  MIC80: < 1 µM

## CCc1nc2ccc(C(F)(F)F)cn2c1C(=O)NCc1ccc(N2CCN(c3ccc(F)cc3)CC2)cc1 [Compound 87]
  MIC80: < 1 µM

## CCc1nc2cc(C(F)(F)F)ccn2c1C(=O)NCc1ccc(N2CCN(c3ccc(C)cc3)CC2)cc1 [Compound 106]
  MIC80: < 1 µM

## CCc1nc2c(Cl)cccn2c1C(=O)NCc1ccc(N2CCC(c3ccc(Cl)cc3)CC2)cc1 [Compound 53]
  MIC80: < 1 µM

## CCc1nc2cc(F)ccn2c1C(=O)NCc1ccc(N2CCC(c3ccc(Cl)cc3)CC2)cc1 [Compound 17]
  MIC80: < 1 µM

## CCc1nc2ccccn2c1C(=O)NCc1ccc(CC2CCOCC2)cc1 [Compound 252]
  MIC80: < 1 µM

## CCc1nc2c(Cl)cccn2c1C(=O)NCc1ccc(N2CCC(c3ccc(OC(F)(F)F)cc3)CC2)cc1 [Compound 224]
  MIC80: < 1 µM

## CCc1nc2ccc(C(F)(F)F)cn2c1C(=O)NCc1ccc(N2CCC(c3ccc(F)cc3)CC2)cc1 [Compound 227]
  MIC80: < 1 µM

## CCc1nc2cc(C)ccn2c1C(=O)NCc1ccc(N2CCC(c3ccc(C)cc3)CC2)cc1 [Compound 231]
  MIC80: < 1 µM

## CCc1nc2ccc(OC)cn2c1C(=O)NCc1ccc(N2CCN(c3ccc(C(F)(F)F)cc3)CC2)cc1 [Compound 210]
  MIC80: < 1 µM

## CCc1nc2ccc(Cl)cn2c1C(=O)NCc1ccc2oc(CN3CCOCC3)nc2c1 [Compound 331]
  MIC80: 1 to 20 µM (≈ 0.454 to 9.08 µg/mL)
